Source: patent US20070219159A1, “CYCLODEXTRIN COMPOSITIONS AND METHODS OF TREATING VIRAL INFECTIONS” (priority 2002, published 2007)
Where two headings read alike, the source gives them in different places.

Experiments:
[1] = system: dlsptk (an ACV-resistant, tk deletion mutant of HSV-1); assay type: cell-based; conditions: MOI 10, 20 μM (4.5 μg/ml) ACV or 6.4 mg/ml β-CD for 24 hours
Vero cells = assay: Cell viability by LDH release assay; assay type: cell-based; conditions: acyclovir 400 μg/ml, 24 and 48 hours, Vero cells
Procedure: FIG. 3 depicts the effects of ACV alone (400 μg/ml) and β-CD alone (8 mg/ml) on the viability of Vero cells as monitored by the LDH release assay after 24 hours of treatments (A); and after 48 hours of treatments (B). All data represents means+SD of two separate experiments.
Cell viability assay. Cell viability was determined fluorometrically by estimating the release of LDH into the media (Moran and Schnellman, 1996). LDH activity was based on the reduction of pyruvate to lactate. The concomitant oxidation of NADH results in a decrease in the fluorescence emission at 450 nm with excitation wavelength 355 nm, and the rate of disappearance of NADH is indicative of LDH activity.
To study the effects of formulations on viability of preformed monolayers, 3 to 4×10^6 Vero cells were added to 1× MEM-5% FBS in T75 flasks. […] Used media were replaced with 15 ml of treatment media, containing 5× MEM-FBS diluted to 1× with water (control), acyclovir stock (400 μg/ml), or β-CD stock (8 mg/ml in water). […]
Reaction solution was made fresh for each experiment by mixing 0.4 ml of 16.2 mM pyruvate with 10 ml of 0.2 mM NADH in phosphate buffer (pH 7.5). […] The amount of LDH calculated for either condition was then compared with and expressed as a percentage of the total LDH present.
Used media were replaced with 15 ml/flask or 2.5 ml/well of treatment media, containing 5× MEM-FBS diluted to 1× with water (control), and […]CD stock. […] Live cells are distinguished by the presence of intracellular esterase activity, as determined by the enzymatic conversion of calcein-AM (nonfluorescent) to calcein (green fluorescence). EthD-1 enters cells with damaged cell membranes and binds to nucleic acids producing red fluorescence to identify dead cells. […] For LDH assays, cells were trypsinized, resuspended in fresh 1× medium, kept at 37° C.-5% CO2 atmosphere, and total LDH present in cells and medium was determined after lysing the cells with 350 μM digitonin. The amount of LDH calculated for either condition was then compared with and expressed as a percentage of the total LDH present. […]

HSV-1 strain KOS1.1 = assay type: cell-based
West Nile = assay: In vitro antiviral screening (Table 1), West Nile
HSV-1 = conditions: in general 1000-fold less drug than Examples 1-6 and 10
HCV = assay: In vitro anti-HCV assay in HCV RNA-replicating cell line AVA5; assay type: cell-based
Procedure: The antiviral activity of test compounds were assayed in the stably HCV RNA-replicating cell line. AVA5, derived by transfection of the human hepatoblastoma cell line, Huh^7 (Blight et al., 2000). Experimental drugs were added to dividing cultures once daily for three days. Media was changed with each addition of compound. Cultures generally started the assays at 50% confluence and reached confluence during the last day of treatment. HCV RNA and cellular β-actin RNA levels were assessed 24 hours after the last dose of compound using dot blot hybridization. Assays were conducted using a single dose of test compound (in triplicate cultures).
Both HCV and β-actin RNA levels in the treated cultures were expressed as a percentage of the mean levels of RNA detected in untreated cultures. β-actin RNA levels were used both as a measure of toxicity, and to normalize the amount of cellular RNA in each sample. A level of 30% or less HCV RNA (relative to control cultures) was considered to be a positive antiviral effect, and a level of 50% or less β-actin RNA (relative to control cultures) is considered to be a cytotoxic effect.
Dividing cultures of AVAB cells were treated once daily for three days (media was changed with each addition of compound) with 4 concentrations of test compounds (3 cultures per concentration). A total of 6 untreated control cultures, and triplicate cultures treated with 10, 3, and 1 IU/ml α-interferon (active antiviral with no cytotoxicity), and 100, 10, and 1 μM ribavir ([…]) served as controls. HCV RNA and cellular β-actin FNA levels were assessed 24 hours after the last dose of compound using dot blot hybridization. β-actin RNA levels were used to normalize the amount of cellular RNA in each sample.
Toxicity analyses were performed on separate plates from those used for the antiviral assays. Cells for the toxicity analyses were cultured and treated with test compounds with the same schedule and under identical culture conditions used for the antiviral evaluations. Each compound was tested at 4 concentrations, each in triplicate cultures. Uptake of neutral red dye was used to determine the relative level of toxicity 24 hours following the last treatment. The absorbance of internalized dye at […] (A510) was used for the quantitative analysis. Values in test cultures were compared to 9 cultures of untreated cells maintained on the same plate as the test cultures.
Assays similar to those described above were conducted.

HSV-2 = conditions: in general 1000-fold less drug than Examples 1-6 and 10

Compound	SI = CC50/EC50 (Flu A)	SI = CC50/EC50 (HCMV)	SI = CC50/EC50 (HHV-7)	SI = CC50/EC50 (VZV)	SI = CC50/EC50 (VEE)	SI = CC50/EC50 (Cowpox)	SI = CC50/EC50 (Resp syncytial)	SI = CC50/EC50 (West Nile)	SI = CC50/EC50 (Ad)	SI = CC50/EC50 (Vaccinia)	SI = CC50/EC50 (PIV)	SI = CC50/EC50 (HRV)	SI = CC50/EC50 (MV)	SI = CC50/EC50 (Yellow fever)	SI = CC50/EC50 (RSV)	SI = CC50/EC50 (MCMV)	SI = CC50/EC50 (Pichinde)	SI = CC50/EC50 (HSV-1)	S.I. for HCV (HCV)	SI = CC50/EC50 (Measles)	other results
Nc1nc2c(ncn2COCCO)c(=O)[nH]1 [ACV, acyclovir, reference compound]																					effect on yield of acyclovir-resistant dlsptk virus (FIG. 2) [1]: no activity; effect on yield of acyclovir-resistant dlsptk virus (FIG. 2) ([1]; listed as acyclovir): not of the acyclovir -resistant mutant; drug-related cell killing (Vero cells): no drug-related cell killing; reduction of KOS1.1 yield at 24 hours (HSV-1 strain KOS1.1; 4.5 μg/ml ACV, MOI 10, post-infection treatment): 10^2 fold; yield of cell-free and cell-associated virus (HSV-1 strain KOS1.1; 24 hours post-infection, MOI 50, BCD 7.2 mg/ml, ACV 400 μg/ml or both, pre, during and post infection treatment (FIG. 1)): markedly decreased; effect on yield of acyclovir-sensitive HSV KOS1.1 (FIG. 2) (HSV-1 strain KOS1.1; MOI 10, 20 μM ACV or 6.4 mg/ml β-CD for 24 hours): able to lower the yield
OC[C@H]1O[C@@H]2O[C@H]3[C@H](O)[C@@H](O)[C@@H](O[C@H]4[C@H](O)[C@@H](O)[C@@H](O[C@H]5[C@H](O)[C@@H](O)[C@@H](O[C@H]6[C@H](O)[C@@H](O)[C@@H](O[C@H]7[C@H](O)[C@@H](O)[C@@H](O[C@H]8[C@H](O)[C@@H](O)[C@@H](O[C@H]9[C@H](O)[C@@H](O)[C@@H](O[C@H]1[C@H](O)[C@H]2O)O[C@@H]9CO)O[C@@H]8CO)O[C@@H]7CO)O[C@@H]6CO)O[C@@H]5CO)O[C@@H]4CO)O[C@@H]3CO [GCD, γ-cyclodextrin]	0	0	0	0	0	0	0	0	0	0	0	0	0	0	0	0	0	0	1.04	0	SI = CC50/EC50 (EBV): 0; SI = CC50/EC50 (Punta Toro): 0; SI = CC50/EC50 (Flu B): 0; SI = CC50/EC50 (HHV-6): 0; SI = CC50/EC50 (Rhino): 0; SI = CC50/EC50 (HSV-2): 0
CC(O)COC[C@H]1O[C@@H]2O[C@H]3[C@H](O)[C@@H](O)[C@@H](O[C@H]4[C@H](O)[C@@H](O)[C@@H](O[C@H]5[C@H](O)[C@@H](O)[C@@H](O[C@H]6[C@H](O)[C@@H](O)[C@@H](O[C@H]7[C@H](O)[C@@H](O)[C@@H](O[C@H]8[C@H](O)[C@@H](O)[C@@H](O[C@H]1[C@H](O)[C@H]2O)O[C@@H]8COCC(C)O)O[C@@H]7COCC(C)O)O[C@@H]6COCC(C)O)O[C@@H]5COCC(C)O)O[C@@H]4COCC(C)O)O[C@@H]3COCC(C)O (stereo partly drawn) [HPBCD, hydroxypropyl β-cyclodextrin]	0	0	0	0	0	0	0	0	0	0	0	0	0	0	0	0	0	0	1.26	0	SI = CC50/EC50 (Punta Toro): 0; SI = CC50/EC50 (Flu B): 0; SI = CC50/EC50 (HHV-6): 0; SI = CC50/EC50 (Rhino): 0; SI = CC50/EC50 (HSV-2): 0
hydroxypropyl α-cyclodextrin [HPACD]								0											0.97		
hydroxypropyl γ-cyclodextrin [HPGCD]								0											1.39		SI = CC50/EC50, value in parenthesis calculated by DNA hybridization (EBV; DNA hybridization): 6.2
α-interferon																					approximate EC90 (HCV; positive antiviral control, no cytotoxicity): ~10 IU/ml
